Test results taken from ChEMBL document CHEMBL3992552, “Mechanisms of action and structure-activity relationships of cytotoxic flavokawain derivatives” (Bioorg Med Chem, 2017).
The source made the active and inactive calls. The rule behind the calls is not given here.

Test system: HaCaT
Experiment: Cell cycle arrest in human HaCaT cells harboring […] p53 assessed as accumulation at S phase at 25 uM measured after 48 hrs by Hoechst/BrdU staining based fluorescence assay (reference value: 52.3%)
Assay type: functional
Details: not given

SMILES	Activity [%]
COc1cc(OC)c(C(=O)/C=C/c2ccc(F)cc2)c(OC)c1	0.4

Test system: PC-3
Experiment: Induction of apoptosis in human PC3 cells harboring p53 mutant assessed as upregulation of cyclinB1 after 48 hrs by Hoechst staining based assay
Assay type: functional, cell-based
Details: not given

SMILES	Activity
COc1cc(OC)c(C(=O)/C=C/c2ccc(F)cc2)c(OC)c1	Active

Test system: MDA-MB-231
Experiment: Cell cycle arrest in human MDA-MB-231 cells harboring p53 mutant assessed as mitotic index at 10 uM measured after 48 hrs by Hoechst staining based fluorescence assay (reference value: 2.1)
Assay type: functional
Details: not given

SMILES	Activity_index
COc1cc(OC)c(C(=O)/C=C/c2ccc(F)cc2)c(OC)c1	22

Test system: not listed separately
Experiment: Selectivity index, ratio of IC50 for human fibroblasts to IC50 for human MDA-MB-231 cells
Details: not given

SMILES	Ratio IC50
COc1cc(OC)c(C(=O)/C=C/c2ccc(F)cc2)c(OC)c1	>4.7

Test system: PC-3
Experiment: Cell cycle arrest in human PC3 cells harboring p53 mutant assessed as accumulation at S phase at 10 uM measured after 48 hrs by Hoechst/BrdU staining based fluorescence assay (reference value: 40.8%)
Assay type: functional
Details: not given

SMILES	Activity [%]
COc1cc(OC)c(C(=O)/C=C/c2ccc(F)cc2)c(OC)c1	27

Test system: MCF7
Experiment: Induction of apoptosis in human MCF7 cells harboring wild-type p53 assessed as increase in early apoptosis at 2 times IC50 after 24 hrs by YoPro/propidium iodide/Hoechst staining based assay
Assay type: functional, cell-based
Details: not given

SMILES	Activity
COc1cc(OC)c(C(=O)/C=C/c2ccc(F)cc2)c(OC)c1	Active

Test system: NCI-H727
Experiment: Cell cycle arrest in human NCI-H727 cells harboring p53 mutant assessed as accumulation at S phase at 10 uM measured after 48 hrs by Hoechst/BrdU staining based fluorescence assay (reference value: 40.3%)
Assay type: functional
Details: not given

SMILES	Activity [%]
COc1cc(OC)c(C(=O)/C=C/c2ccc(F)cc2)c(OC)c1	31

Test system: Huh-7
Experiment: Cell cycle arrest in human HuH7 cells assessed as mitotic index at 25 uM measured after 48 hrs by Hoechst staining based fluorescence assay (reference value: 2.2)
Assay type: functional
Details: not given

SMILES	Activity_index
COc1cc(OC)c(C(=O)/C=C/c2ccc(F)cc2)c(OC)c1	1.3

Test system: MDA-MB-231
Experiment: Cytotoxicity against human MDA-MB-231 cells assessed as cell viability after 48 hrs by Hoechst 33342 staining based assay
Assay type: functional
Details: MDA-MB-231, 48 h

SMILES	IC50 [µM]
COc1cc(OC)c(C(=O)/C=C/c2ccc(F)cc2)c(OC)c1	10.7

Test system: not listed separately
Experiment: Selectivity index, ratio of IC50 for human fibroblasts to IC50 for human RL cells
Details: not given

SMILES	Ratio IC50
COc1cc(OC)c(C(=O)/C=C/c2ccc(F)cc2)c(OC)c1	>7.8

Test system: PC-3
Experiment: Cell cycle arrest in human PC3 cells assessed as accumulation at M phase by Hoechst staining based fluorescence assay
Assay type: functional
Details: not given

SMILES	Activity
COc1cc(OC)c(C(=O)/C=C/c2ccc(F)cc2)c(OC)c1	Active

Test system: PC-3
Experiment: Cell cycle arrest in human PC3 cells harboring p53 mutant assessed as accumulation at S phase at 25 uM measured after 48 hrs by Hoechst/BrdU staining based fluorescence assay (reference value: 40.8%)
Assay type: functional
Details: not given

SMILES	Activity [%]
COc1cc(OC)c(C(=O)/C=C/c2ccc(F)cc2)c(OC)c1	0.4

Test system: not listed separately
Experiment: Selectivity index, ratio of IC50 for human fibroblasts to IC50 for human HuH7 cells
Details: not given

SMILES	Ratio IC50
COc1cc(OC)c(C(=O)/C=C/c2ccc(F)cc2)c(OC)c1	>3.4

Test system: HaCaT
Experiment: Cell cycle arrest in human HaCaT cells harboring […] p53 assessed as accumulation at S phase at 10 uM measured after 48 hrs by Hoechst/BrdU staining based fluorescence assay (reference value: 52.3%)
Assay type: functional
Details: not given

SMILES	Activity [%]
COc1cc(OC)c(C(=O)/C=C/c2ccc(F)cc2)c(OC)c1	20

Test system: not listed separately
Experiment: Selectivity index, ratio of IC50 for human fibroblasts to IC50 for human MCF7 cells
Details: not given

SMILES	Ratio IC50
COc1cc(OC)c(C(=O)/C=C/c2ccc(F)cc2)c(OC)c1	>6.5

Test system: MDA-MB-231
Experiment: Cell cycle arrest in human MDA-MB-231 cells assessed as accumulation at M phase by Hoechst staining based fluorescence assay
Assay type: functional
Details: not given

SMILES	Activity
COc1cc(OC)c(C(=O)/C=C/c2ccc(F)cc2)c(OC)c1	Active

Test system: HCT-116
Experiment: Cytotoxicity against human HCT116 cells assessed as cell survival at 50 uM after 48 hrs by Hoechst 33342 staining based assay relative to control
Assay type: functional
Details: HCT-116, 48 h, read-out: Survival

SMILES	viability at 50 µM [%]
COc1cc(OC)c(C(=O)/C=C/c2ccc(F)cc2)c(OC)c1	1

Test system: Caco-2
Experiment: Cell cycle arrest in human Caco2 cells assessed as accumulation at S phase at 25 uM measured after 48 hrs by Hoechst/BrdU staining based fluorescence assay (reference value: […])
Assay type: functional
Details: not given

SMILES	Activity [%]
COc1cc(OC)c(C(=O)/C=C/c2ccc(F)cc2)c(OC)c1	13

Test system: not listed separately
Experiment: Selectivity index, ratio of IC50 for human fibroblasts to IC50 for human HCT116 cells
Details: not given

SMILES	Ratio IC50
COc1cc(OC)c(C(=O)/C=C/c2ccc(F)cc2)c(OC)c1	>8.1

Test system: MCF7
Experiment: Induction of apoptosis in human MCF7 cells harboring wild-type p53 assessed as increase in late apoptosis at 2 times IC50 after 24 hrs by YoPro/propidium iodide/Hoechst staining based assay
Assay type: functional, cell-based
Details: not given

SMILES	Activity
COc1cc(OC)c(C(=O)/C=C/c2ccc(F)cc2)c(OC)c1	Active

Test system: HCT-116
Experiment: Cell cycle arrest in human HCT116 cells harboring wild-type p53 assessed as mitotic index at 25 uM measured after 48 hrs by Hoechst staining based fluorescence assay (reference value: 2.3)
Assay type: functional
Details: not given

SMILES	Activity_index
COc1cc(OC)c(C(=O)/C=C/c2ccc(F)cc2)c(OC)c1	0.4

Test system: HaCaT
Experiment: Cytotoxicity against human HaCaT cells assessed as cell viability after 48 hrs by Hoechst 33342 staining based assay
Assay type: functional
Details: not given

SMILES	IC50 [µM]
COc1cc(OC)c(C(=O)/C=C/c2ccc(F)cc2)c(OC)c1	7.6

Test system: Huh-7
Experiment: Cell cycle arrest in human HuH7 cells assessed as mitotic index at 10 uM measured after 48 hrs by Hoechst staining based fluorescence assay (reference value: 2.2)
Assay type: functional
Details: not given

SMILES	Activity_index
COc1cc(OC)c(C(=O)/C=C/c2ccc(F)cc2)c(OC)c1	4.7

Test system: MDA-MB-231
Experiment: Cell cycle arrest in human MDA-MB-231 cells harboring p53 mutant assessed as accumulation at S phase at 10 uM measured after 48 hrs by Hoechst/BrdU staining based fluorescence assay (reference value: 42.2%)
Assay type: functional
Details: not given

SMILES	Activity [%]
COc1cc(OC)c(C(=O)/C=C/c2ccc(F)cc2)c(OC)c1	43

Test system: HCT-116
Experiment: Induction of apoptosis in human HCT116 cells harboring wild-type p53 assessed as upregulation of p21 measured after 48 hrs by Hoechst staining based fluorescence assay
Assay type: functional, cell-based
Details: not given

SMILES	Activity
COc1cc(OC)c(C(=O)/C=C/c2ccc(F)cc2)c(OC)c1	Active

Test system: PC-3
Experiment: Induction of apoptosis in human PC3 cells harboring p53 mutant assessed as increase in late apoptosis at 2 times IC50 after 48 hrs by YoPro/propidium iodide/Hoechst staining based assay
Assay type: functional, cell-based
Details: not given

SMILES	Activity
COc1cc(OC)c(C(=O)/C=C/c2ccc(F)cc2)c(OC)c1	Active

Test system: HCT-116
Experiment: Cell cycle arrest in human HCT116 cells harboring wild-type p53 assessed as accumulation at S phase at 25 uM measured after 48 hrs by Hoechst/BrdU staining based fluorescence assay (reference value: 68.4%)
Assay type: functional
Details: not given

SMILES	Activity [%]
COc1cc(OC)c(C(=O)/C=C/c2ccc(F)cc2)c(OC)c1	0.7

Test system: MDA-MB-231
Experiment: Cell cycle arrest in human MDA-MB-231 cells harboring p53 mutant assessed as accumulation at S phase at 25 uM measured after 48 hrs by Hoechst/BrdU staining based fluorescence assay (reference value: 42.2%)
Assay type: functional
Details: not given

SMILES	Activity [%]
COc1cc(OC)c(C(=O)/C=C/c2ccc(F)cc2)c(OC)c1	10

Test system: RL
Experiment: Cytotoxicity against human RL assessed as cell viability after 48 hrs by Hoechst 33342 staining based assay
Assay type: functional
Details: not given

SMILES	IC50 [µM]
COc1cc(OC)c(C(=O)/C=C/c2ccc(F)cc2)c(OC)c1	6.4

Test system: NCI-H727
Experiment: Cell cycle arrest in human NCI-H727 cells harboring p53 mutant assessed as accumulation at S phase at 25 uM measured after 48 hrs by Hoechst/BrdU staining based fluorescence assay (reference value: 40.3%)
Assay type: functional
Details: not given

SMILES	Activity [%]
COc1cc(OC)c(C(=O)/C=C/c2ccc(F)cc2)c(OC)c1	4.5

Test system: HaCaT
Experiment: Cell cycle arrest in human HaCaT cells harboring […] p53 assessed as mitotic index at 10 uM measured after 48 hrs by Hoechst staining based fluorescence assay (reference value: 2.6)
Assay type: functional
Details: not given

SMILES	Activity_index
COc1cc(OC)c(C(=O)/C=C/c2ccc(F)cc2)c(OC)c1	10.7

Test system: MDA-MB-231
Experiment: Induction of apoptosis in human MDA-MB-231 cells harboring p53 mutant assessed as increase in late apoptosis at 2 times IC50 after 24 hrs by YoPro/propidium iodide/Hoechst staining based assay
Assay type: functional, cell-based
Details: not given

SMILES	Activity
COc1cc(OC)c(C(=O)/C=C/c2ccc(F)cc2)c(OC)c1	Active

Test system: not listed separately
Experiment: Selectivity index, ratio of IC50 for human fibroblasts to IC50 for human Caco2 cells
Details: not given

SMILES	Ratio IC50
COc1cc(OC)c(C(=O)/C=C/c2ccc(F)cc2)c(OC)c1	>9.1

Test system: Caco-2
Experiment: Cytotoxicity against human Caco2 cells assessed as cell survival at 50 uM after 48 hrs by Hoechst 33342 staining based assay relative to control
Assay type: functional
Details: Caco-2, 48 h, read-out: Survival

SMILES	viability at 50 µM [%]
COc1cc(OC)c(C(=O)/C=C/c2ccc(F)cc2)c(OC)c1	3

Test system: HCT-116
Experiment: Cytotoxicity against human HCT116 cells assessed as cell viability after 48 hrs by Hoechst 33342 staining based assay
Assay type: functional
Details: HCT-116, 48 h

SMILES	IC50 [µM]
COc1cc(OC)c(C(=O)/C=C/c2ccc(F)cc2)c(OC)c1	6.2

Test system: HaCaT
Experiment: Cytotoxicity against human HaCaT cells assessed as cell survival at 50 uM after 48 hrs by Hoechst 33342 staining based assay relative to control
Assay type: functional
Details: read-out: Survival

SMILES	viability at 50 µM [%]
COc1cc(OC)c(C(=O)/C=C/c2ccc(F)cc2)c(OC)c1	21

Test system: MDA-MB-231
Experiment: Cytotoxicity against human MDA-MB-231 cells assessed as cell survival at 50 uM after 48 hrs by Hoechst 33342 staining based assay relative to control
Assay type: functional
Details: MDA-MB-231, 48 h, read-out: Survival

SMILES	viability at 50 µM [%]
COc1cc(OC)c(C(=O)/C=C/c2ccc(F)cc2)c(OC)c1	12

Test system: NCI-H727
Experiment: Cytotoxicity against human NCI-H727 cells assessed as cell survival at 50 uM after 48 hrs by Hoechst 33342 staining based assay relative to control
Assay type: functional
Details: NCI-H727, 48 h, read-out: Survival

SMILES	viability at 50 µM [%]
COc1cc(OC)c(C(=O)/C=C/c2ccc(F)cc2)c(OC)c1	4
